Experimental data from patent publication US4755527A, “Aryl substituted aminomethyl benzene derivatives” (priority 1985, dated 1988).
Like-named read-outs stand apart in the source and are kept apart here.

What was measured:
[1] = test system: ventricular arrhythmias induced by two-stage ligation of the left anterior descending coronary artery (Harris dog); assay: Antiarrhythmic activity by coronary ligation in the Harris dog model (i.v. infusion); type: in vivo, dog (adult mongrel); details: Canis lupus familiaris, read-out: Antiarrhythmic ED in Harris Dog
Description: The following examples describe the pharmacological evaluation of the compounds made in accordance with the present invention. In particular, these examples describe the evaluation of antiarrhythmic activity by coronary ligation in the well known Harris dog model. Ventricular arrhythmias were induced in adult mongrel dogs (10-15 kg) of either sex by two-stage ligation of the left anterior descending coronary artery. […] The test compound in saline was infused intravenously at a cumulative rate of […] to 1.2 mg/kg/min (base) unitl normal sinus rhythm or toxicity occurred. Normal sinus rhythm was defined as 90-100% normal complexes over a 5 min period.

cardiac cells = details: cited from earlier work
Guinea Pig Ileum = assay: In vitro evaluation of anticholinergic activity in the isolated guinea pig ileum; parameters: species or system guinea pig (male Hartley); details: Cavia porcellus, read-out: Anticholinergic Inhibition of Guinea Pig Ileum (% inhibition at 4 mg/L)
Experimental: The following examples describe the in vitro evaluation of anticholinergic activity in the isolated guinea pig ileum. Fasted, male Hartley guinea pigs (300-400 g) were killed by a blow to the head. […] One end of the ileal strip was impaled onto a platinum wire electrode; and the other end was tied to a stationary glass rod. Basal tension was set at 0.1-0.3 g and peak developed tension in response to field stimulation (100-150 V, 10 msec pulse duration, 0.2 Hz) was measured with a tension transducer.

patients = details: cited from earlier work
[2] = test system: ventricular arrhythmias induced by ouabain (Ouabain dog); assay: Antiarrhythmic activity in the Ouabain dog model (i.v. infusion); type: in vivo; details: Canis lupus familiaris, read-out: Antiarrhythmic ED in Ouabain Dog
Experimental: The following examples describe the pharmacological evaluation of the compounds in accordance with the present invention. In particular, these examples describe the evaluation of antiarrhythmic activity in the Oubain dog model. […] The test compound was infused intravenously in saline at a rate of about 0.3 to about 5 mg/kg/min until normal sinus rhythm or toxicity occurred. Normal sinus rhythm was defined as 90-100% normal complexes over a 5 minute period.

[3] = Harris dog, IV infusion, ED is the effective dose required to sustain normal sinus rhythm
[4] = 4 mg/L, inhibition of field-stimulated contractile tension
[5] = administered to patients for the management of arrhythmias
[6] = Ouabain dog, IV infusion, ED is the effective dose required to sustain normal sinus rhythm

Structure (SMILES) | minimal effective dose [1, 3] | anticholinergic activity (in words, background) (cardiac cells) | effect on impulse formation, conduction velocity and refractory period of cardiac cells (cardiac cells) | inhibition at 4 µg/mL (Guinea Pig Ileum; [4]) | adverse side-effects in patients (patients; human, in vivo) | adverse side-effects in patients (patients; [5]) | antiarrhythmic effectiveness (in words, background) (patients; human, in vivo) | minimal effective dose [2, 6] | minimal effective dose ([1]; iv) | inhibition at 4 µg/mL (Guinea Pig Ileum) | minimal effective dose ([2]; iv)
C=C[C@H]1C[N@@]2CC[C@H]1C[C@@H]2[C@@H](O)c1ccnc2ccc(OC)cc12 (stereo in doubt) [Quinidine, 6-methoxy-α-(5'-vinyl-2-quinuclidinyl)-4-quindinemethanol] | 10.1 mg/kg | indirect anticholinergic actions | depress impulse formation, slow conduction velocity, and increase the duration of the refractory period of cardiac cells | 62% | cardiotoxicity, diarrhea, nausea, vomiting, fever, hypertension and depression of myocardial contractility | – | – | – | – | – | –
Oc1c(CN2CCCC2)cc(Nc2ncnc3ccccc23)cc1CN1CCCC1 [Changrolin, 4-[3',5'-bis[N-pyrrolidinylmethyl]-4'-hydroxyanilino]quinazoline, reference compound] | 10.3 mg/kg | substantial anticholinergic activity | – | 43% | – | skin discoloration in some patients | effective antiarrhythmic agent | 5.5 mg/kg | – | – | –
CC(C)N(CCC(C(N)=O)(c1ccccc1)c1ccccn1)C(C)C (stereo not drawn) [Disopyramide, α[2-(diisopropylamino)-ethyl]α-phenol-2-pyridineacetamide, reference compound] | – | indirect anticholinergic actions | depress impulse formation, slow conduction velocity, and increase the duration of the refractory period of cardiac cells | – | – | dryness of the mouth, blurred vision, constipation, and urinary retention, and depression of myocardial contractility | – | – | 6.8 mg/kg | 81% | 4.4 mg/kg
O=C(Nc1cc(CN2CCCC2)c(O)c(CN2CCCC2)c1)c1ccc(C(F)(F)F)cc1 [XIII, N--(4-trifluoromethylbenzoyl)-3,5,-bis(N--pyrrolidinylmethyl)-4-hydroxyaniline] | 9 mg/kg | – | – | 43% | – | – | – | 5.25 mg/kg | – | – | –
